Measurements as given in ChEMBL document CHEMBL3785074, “Molecular modeling and snake venom phospholipase A2 inhibition by phenolic compounds: Structure-activity relationship” (Eur J Med Chem, 2016).

How the values were obtained:
[1] = Lipophilicity, log P of compound; assay type: physicochemical; conditions: octanol/water; read-out: logP
[2] = Protective activity against Daboia russellii venom-induced mortality in Swiss albino mouse at 6 mmol, iv administered immediately after venom injection measured after 24 hrs relative to untreated control; assay type: functional, Daboia russelii
[3] = Protective activity against Naja kaouthia venom-induced mortality in Swiss albino mouse at 6 mmol, iv administered immediately after venom injection measured after 24 hrs relative to untreated control; assay type: functional
[4] = Protective activity against Naja kaouthia venom-induced mortality in Swiss albino mouse at 6 mmol, iv by measuring venom LD50 administered immediately after venom injection measured after 24 hrs (reference value: 2.82 ug); assay type: functional
[5] = Protective activity against Naja kaouthia venom-induced mortality in Swiss albino mouse at 6 mmol, iv by measuring venom LD50 preincubated with venom for 1 hr followed by administration to mouse measured after 24 hrs (reference value: 2.82 ug); assay type: functional
[6] = Protective activity against Naja kaouthia venom-induced mortality in Swiss albino mouse at 6 mmol, iv preincubated with venom for 1 hr followed by administration to mouse measured after 24 hrs relative to untreated control; assay type: functional
[7] = Protective activity against Daboia russellii venom-induced mortality in Swiss albino mouse at 6 mmol, iv preincubated with venom for 1 hr followed by administration to mouse measured after 24 hrs relative to untreated control; assay type: functional, Daboia russelii
[8] = Protective activity against Daboia russellii venom-induced mortality by measuring venom LD50 in Swiss albino mouse at 6 mmol, iv preincubated with venom for 1 hr followed by administration to mouse measured after 24 hrs (reference value: 2.28 ug); assay type: functional, Daboia russelii
[9] = Protective activity against Daboia russellii venom-induced hemorrhage in intradermally dosed Swiss albino mouse at 6 mmol assessed as hemorhagic lesion by measuring minimal […] dose preincubated with venom for 1 hr followed by administration to mouse measured after 24 hrs (reference value: 5 ug); assay type: functional, Daboia russelii
[10] = Protective activity against Daboia russellii venom-induced hemorrhage in intradermally dosed Swiss albino mouse at 6 mmol assessed as hemorhagic lesion preincubated with venom for 1 hr followed by administration to mouse measured after 24 hrs relative to untreated control; assay type: functional, Daboia russelii
[11] = Protective activity against Daboia russellii venom-induced hemorrhage in Swiss albino mouse at 6 mmol, iv assessed as hemorhagic lesion by measuring […] administered immediately after venom injection measured after 24 hrs (Rvb =5 ug); assay type: functional, Daboia russelii
[12] = Protective activity against Daboia russellii venom-induced hemorrhage in Swiss albino mouse at 6 mmol, iv assessed as hemorhagic lesion administered immediately after venom injection measured after 24 hrs relative to untreated control; assay type: functional, Daboia russelii
[13] = Protective activity against Daboia russellii venom-induced mortality in Swiss albino mouse at 6 mmol, iv by measuring venom LD50 administered immediately after venom injection measured after 24 hrs (reference value: 2.28ug); assay type: functional, Daboia russelii

SMILES: COc1ccc(C(=O)O)c(O)c1 [4-METHOXYSALICYLIC ACID]
- logP [1]: 1.21
- fold change (FC) [2]: 3.75
- fold change (FC) [3]: 2
- LD50 [4]: 10 µg
- LD50 [5]: 9 µg
- fold change (FC) [6]: 3.2
- fold change (FC) [7]: 9.8
- LD50 [8]: 22 µg
- MHC [9]: 20 µg
- fold change (FC) [10]: 4
- MHC [11]: 10 µg
- fold change (FC) [12]: 2
- LD50 [13]: 150 µg
